Experimental data taken from patent US20250129430A1, “HIGH ATP-AFFINITY PROTEIN AS THERAPEUTIC TARGET FOR INTRACTABLE CANCER MOLECULAR SUBTYPES AND INHIBITOR THEREOF” (VeraVerse Co., Ltd., priority 2021, published 2025).

Tests used:
Format in all cases: cell-based, human
[1] = test system: non-SEM-type gastric cancer cell line; assay: Cell viability drug screen, AUC summary over non-SEM-type lines; details: in the non-SEM-type gastric cancer cell line
[2] = test system: SEM-type gastric cancer cell line; assay: Cell viability drug screen, AUC summary over SEM-type lines
Protocol: An FDA-approved small-molecule pharmacological compound (#L1300) and an anticancer compound for research (#L2000) were purchased from Selecckchem and a 10 mM solution was prepared in DMSO. A total of 1,345 compounds were tested the cell viability of the seven EMT gastric cancer cell lines.
Cells cultured for cell-based drug assay were inoculated into a 96-well white optical plate (Corning) at 5×10^3 cells per well. After 24 hours after inoculation, a 2.5 MJT (primary screen) or a half-log 12-serial diluent (secondary screen) of the pharmacological compound contained in DMSO is added to the cells with a robot using a BioMek FXp liquid processor (Beckman) to add to the cells at 50 mM. The final drug concentration in the 5 ns range and the DMSO specification control (0.5%) were calculated. The cells were then further incubated at 37° C. in a 5% CO2 incubator for 72 hours prior to measuring cell viability using the extra-GLO assay kit (Promega). The luminescent properties were measured after 15 min incubation at room temperature using a plate stacker equipped with a plate stacker. The normalized viability for the DMSO-based control was measured to generate a cell line-specific 12-point dose-response curve for each pharmacological compound, and then the area under the curve (AUC) was calculated using a trapezoidal method.

FU97 = assay: Cell viability drug screen, 12-point dose-response AUC; set-up: Average Area Under the Viability Curve (AUC), AUC norm value: scale not given here; details: FU97 cells; 72 hours
Summary of the method: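 Trapezoidal AUC of a 12-point, DMSO-normalized dose-response curve. Luminescent viability was measured after 72 h of exposure at 37° C to half-log serial dilutions (0.5% DMSO control), dosed 24 h after plating FU97 cells at 5×10^3 per well.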

SNU16 = assay: as above; details: SNU16 cells; 72 hours
Summary of the method: (§1)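 Viability: luminescence (Glo kit, 15 min RT), normalized to 0.5% DMSO vehicle. Dosing: half-log, 12 concentrations, 72 h. Cells: 5×10^3/well, treated 24 h after plating. Value: trapezoidal AUC, mean of repeats.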

Hs746T = assay: as above; details: Hs746T cells (SEM subtype); 72 hours
Summary of the method: as §1

NCC19 = assay: as above; details: NCC19 cells; 72 hours
Summary of the method: as §1

SNU484 = assay: as above; details: SNU484 cells (SEM subtype); 72 hours
Summary of the method: as §1

SNU1750 = assay: as above; details: SNU1750 cells (SEM subtype); 72 hours
Summary of the method: as §1

SNU638 = assay: as above; details: SNU638 cells; 72 hours
Summary of the method: as §1

KATO3 = assay: as above; details: KATO3 cells; 72 hours
Summary of the method: as §1

MKN1 = assay: as above; details: MKN1 cells; 72 hours
Summary of the method: as §1

NCC59 = assay: as above; details: NCC59 cells; 72 hours
Summary of the method: as §1

SNU1 = assay: as above; details: SNU1 cells; 72 hours
Summary of the method: as §1

SNU601 = assay: as above; details: SNU601 cells; 72 hours
Summary of the method: as §1

NCI_N87 = assay: as above; details: NCI_N87 cells; 72 hours
Summary of the method: as §1

MKN45 = assay: as above; details: MKN45 cells (non-SEM subtype); 72 hours
Summary of the method: as §1

MKN74 = assay: as above; details: MKN74 cells; 72 hours
Summary of the method: as §1

SNU620 = assay: as above; details: SNU620 cells; 72 hours
Summary of the method: as §1

SNU1967 = assay: as above; details: SNU1967 cells; 72 hours
Summary of the method: as §1

NCC24 = assay: as above; details: NCC24 cells; 72 hours
Summary of the method: as §1

NCC20 = assay: as above; details: NCC20 cells; 72 hours
Summary of the method: as §1

SK4 = assay: as above; details: SK4 cells (SEM subtype); 72 hours
Summary of the method: as §1

SNU668 = assay: as above; details: SNU668 cells (SEM subtype); 72 hours
Summary of the method: as §1

YCC11 = assay: as above; details: YCC11 cells (SEM subtype); 72 hours
Summary of the method: as §1

SNU719 = assay: as above; details: SNU719 cells; 72 hours
Summary of the method: as §1

YCC3 = assay: as above; details: YCC3 cells; 72 hours
Summary of the method: as §1

YCC2 = assay: as above; details: YCC2 cells; 72 hours
Summary of the method: as §1

OCUM1 = assay: as above; details: OCUM1 cells; 72 hours
Summary of the method: as §1

AGS = assay: as above; details: AGS cells (non-SEM subtype); 72 hours
Summary of the method: as §1

SNU216 = assay: as above; details: SNU216 cells (non-SEM subtype); 72 hours
Summary of the method: as §1

MKN28 = assay: as above; details: MKN28 cells; 72 hours
Summary of the method: as §1

SMILES | AUC value [1] | Average Area Under the Viability Curve (AUC), AUC norm value (FU97) | Average Area Under the Viability Curve (AUC), AUC norm value (SNU16) | Average Area Under the Viability Curve (AUC), AUC norm value (Hs746T) | Average Area Under the Viability Curve (AUC), AUC norm value (NCC19) | Average Area Under the Viability Curve (AUC), AUC norm value (SNU484) | Average Area Under the Viability Curve (AUC), AUC norm value (SNU1750) | Average Area Under the Viability Curve (AUC), AUC norm value (SNU638) | Average Area Under the Viability Curve (AUC), AUC norm value (KATO3) | Average Area Under the Viability Curve (AUC), AUC norm value (MKN1) | Average Area Under the Viability Curve (AUC), AUC norm value (NCC59) | Average Area Under the Viability Curve (AUC), AUC norm value (SNU1) | Average Area Under the Viability Curve (AUC), AUC norm value (SNU601) | Average Area Under the Viability Curve (AUC), AUC norm value (NCI_N87) | Average Area Under the Viability Curve (AUC), AUC norm value (MKN45) | Average Area Under the Viability Curve (AUC), AUC norm value (MKN74) | Average Area Under the Viability Curve (AUC), AUC norm value (SNU620) | Average Area Under the Viability Curve (AUC), AUC norm value (SNU1967) | Average Area Under the Viability Curve (AUC), AUC norm value (NCC24) | Average Area Under the Viability Curve (AUC), AUC norm value (NCC20) | other results
Cn1c(=O)n(-c2ccc(C(C)(C)C#N)cc2)c2c3cc(-c4cnc5ccccc5c4)ccc3ncc21 [BEZ235 (NVP-BEZ235), BEZ235] | high | −2.382 | −0.9859 | −0.9926 | 0.9022 | 0 | −1.129 | 0.8979 | 2.717 | −0.845 | 2.997 | −1.128 | 2.66 | 0.7505 | 1.887 | 0.02041 | −0.6893 | −0.17 | 0.08486 | −1.542 | normalized viability AUC [2]: negative; Average Area Under the Viability Curve (AUC), AUC norm value (SK4): −3.142; Average Area Under the Viability Curve (AUC), AUC norm value (SNU668): 1.258; Average Area Under the Viability Curve (AUC), AUC norm value (YCC11): −2.698; Average Area Under the Viability Curve (AUC), AUC norm value (SNU719): 5.119; Average Area Under the Viability Curve (AUC), AUC norm value (YCC3): 0.9008; Average Area Under the Viability Curve (AUC), AUC norm value (YCC2): 0.6403; Average Area Under the Viability Curve (AUC), AUC norm value (OCUM1): −0.3719; Average Area Under the Viability Curve (AUC), AUC norm value (AGS): −1.768; Average Area Under the Viability Curve (AUC), AUC norm value (SNU216): −0.6351; Average Area Under the Viability Curve (AUC), AUC norm value (MKN28): 2.007
CCC[C@H](NC(=O)/C(C#N)=C/c1cccc(Br)n1)c1ccccc1 [WP1130] | high | −0.7929 | 0 | −0.3738 | 1.376 | −0.8971 | −0.8602 | −0.3485 | 1.454 | −0.4264 | 0.7588 | 1.527 | 3.24 | 2.159 | 1.024 | −0.1908 | 1.336 | −0.7195 | 0.3475 | −0.8247 | Average Area Under the Viability Curve (AUC), AUC norm value (SK4): −0.08364; Average Area Under the Viability Curve (AUC), AUC norm value (SNU668): 0.1607; Average Area Under the Viability Curve (AUC), AUC norm value (YCC11): −0.2144; Average Area Under the Viability Curve (AUC), AUC norm value (SNU719): 1.245; Average Area Under the Viability Curve (AUC), AUC norm value (YCC3): 0.8784; Average Area Under the Viability Curve (AUC), AUC norm value (YCC2): 0.94; Average Area Under the Viability Curve (AUC), AUC norm value (OCUM1): −0.652; Average Area Under the Viability Curve (AUC), AUC norm value (AGS): −0.6997; Average Area Under the Viability Curve (AUC), AUC norm value (SNU216): 0.1101; Average Area Under the Viability Curve (AUC), AUC norm value (MKN28): −0.04006
